Reference: patent US20190216889A1, “METHODS AND COMPOSITIONS FOR TREATMENT OF FIBROSIS” (Children's Hospital Medical Center, priority 2018, published 2019)
“Also recorded” adds a separate entry of the source. Where no end group is shown, it is not given here.

Key:
[1] = system: myocardial ischemia/reperfusion (I/R) injury; settings: cited from earlier work
[2] = system: murine model of unilateral renal ischemia/reperfusion (UIR); experiment: Unilateral renal ischemia/reperfusion (UIR) with daily i.p. peptide from day 7, tissues collected day 14; type: in vivo, C57BL6/J mice
Procedure: Starting seven days after surgery, pUR4 (25 mg/kg/d), III-11C (control; 25 mg/kg/d) or PBS were administered daily by intraperitoneal injection. Mice were sacrificed and tissues collected 14 days after surgery.
All procedures were approved by and performed according to the Department of Laboratory Animal Medicine and the Institutional Animal Care and Use Committee at the Cincinnati Children's Hospital Medical Center. Wild type C57BL6/J 9-10-week-old male mice (Jackson Laboratories) were used for these experiments.
Mice were allowed 1-2 weeks of acclimation upon arrival to the animal facility, after which they underwent unilateral ischemia/reperfusion (UIR) according to Le Clef et al., 2016.17 Briefly, mice were anesthetized with 3% isoflurane for surgical prep (abdominal hair removal, animal identification, etc.), and maintained at 1.5% isoflurane on a 37° C. heating pad throughout the procedure. Following surgical exposure of the ventral abdomen, an atraumatic clamp was placed on the left renal artery and vein for 30 minutes; verification of color change following reperfusion was performed by the surgeon before mice were sutured and glued (outer suture reinforcement), given buprenorphine and subcutaneous saline and returned to their cages. For each animal, the contralateral (right) kidney and renal blood vessels were visualized, but remained untouched. Sham animals underwent an identical surgical procedure, except that the left and right renal arteries and veins were exposed, but were not clamped. Seven (7) days after surgery, mice were weighed and randomly assigned to daily intraperitoneal (i.p.) injections of PBS, III-11C (control peptide; 25 mg/kg), or pUR4 (25 mg/kg).
14 days after UIR (7 days after the onset of daily peptide injections), mice were given 100U heparin and anesthetized with isoflurane; blood was collected and animals were perfused with cold PBS through the aortic arch. Kidneys were excised (and the capsule membrane carefully removed), weighed, and then bisected lengthwise; one half was placed in cold 4% paraformaledhyde overnight followed by paraffin embedding, the other half cut into ˜1 mm3 pieces and flash-frozen for RNA and protein isolation.
Fixed kidneys were paraffin embedded, sectioned at 8 μm and mounted onto glass slides. Prior to staining, the sections were deparaffinized in xylene and rehydrated to water through increasing dilutions of ethanol (100%, 95%, 70%, and then 50%). For picrosirius red staining, slides were incubated for 1 hour in 0.1% Sirius Red (in 1.3% aqueous picric acid), washed twice in acidified water (0.5% acetic acid), […] and mounted with Permount. Images were taken at 10× and 40× (Olympus BX-51 with a DS-Ril camera), and the percentage of red staining was quantified using Image J software (NIH) by two observers blinded to experimental conditions.
For immunofluorescent staining, deparaffinized and rehydrated sections were microwaved for 20 minutes in a sodium citrate antigen retrieval solution (Vector H-3300), and then permeabilized in 0.06% triton-X in TBS. Sections were blocked in 10% goat or donkey serum (depending on the secondary antibody) in TBS for 2 hours at room temperature, and then incubated with primary antibody in 1% serum/TBS overnight at 4° C. Antibodies used were as follows: lipocalin-2/NGAL (1:100; JM-3819, MBL Intl Corp), Tim1/Kim1 (1:100; AF1817, R&D Systems), CD45 (1:100; AF114, R&D Systems), fibronectin (1:100; ab2413, Abcam), collagen I (1:100; ab21286, Abcam), vimentin (1:100; ab45939, Abcam), alpha-smooth muscle actin (1:500; A5228, Sigma). Slides were then washed three times in TBST for 5 min each, and incubated with secondary antibodies for 45 minutes at room temperature. In these experiments the following secondary antibodies were used, all from Jackson ImmunoResearch: donkey anti-rabbit 488 (711-545-152), donkey anti-goat 488 (705-545-147), donkey anti-mouse 647 (715-605-150) and donkey anti-rabbit 647 (711-605-152). […]

[3] = molecular target: fibronectin polymerization (Homo sapiens, UniProt P02751); settings: in vitro; cited from earlier work
fibronectin polymerization, sequence (P02751 32-2477): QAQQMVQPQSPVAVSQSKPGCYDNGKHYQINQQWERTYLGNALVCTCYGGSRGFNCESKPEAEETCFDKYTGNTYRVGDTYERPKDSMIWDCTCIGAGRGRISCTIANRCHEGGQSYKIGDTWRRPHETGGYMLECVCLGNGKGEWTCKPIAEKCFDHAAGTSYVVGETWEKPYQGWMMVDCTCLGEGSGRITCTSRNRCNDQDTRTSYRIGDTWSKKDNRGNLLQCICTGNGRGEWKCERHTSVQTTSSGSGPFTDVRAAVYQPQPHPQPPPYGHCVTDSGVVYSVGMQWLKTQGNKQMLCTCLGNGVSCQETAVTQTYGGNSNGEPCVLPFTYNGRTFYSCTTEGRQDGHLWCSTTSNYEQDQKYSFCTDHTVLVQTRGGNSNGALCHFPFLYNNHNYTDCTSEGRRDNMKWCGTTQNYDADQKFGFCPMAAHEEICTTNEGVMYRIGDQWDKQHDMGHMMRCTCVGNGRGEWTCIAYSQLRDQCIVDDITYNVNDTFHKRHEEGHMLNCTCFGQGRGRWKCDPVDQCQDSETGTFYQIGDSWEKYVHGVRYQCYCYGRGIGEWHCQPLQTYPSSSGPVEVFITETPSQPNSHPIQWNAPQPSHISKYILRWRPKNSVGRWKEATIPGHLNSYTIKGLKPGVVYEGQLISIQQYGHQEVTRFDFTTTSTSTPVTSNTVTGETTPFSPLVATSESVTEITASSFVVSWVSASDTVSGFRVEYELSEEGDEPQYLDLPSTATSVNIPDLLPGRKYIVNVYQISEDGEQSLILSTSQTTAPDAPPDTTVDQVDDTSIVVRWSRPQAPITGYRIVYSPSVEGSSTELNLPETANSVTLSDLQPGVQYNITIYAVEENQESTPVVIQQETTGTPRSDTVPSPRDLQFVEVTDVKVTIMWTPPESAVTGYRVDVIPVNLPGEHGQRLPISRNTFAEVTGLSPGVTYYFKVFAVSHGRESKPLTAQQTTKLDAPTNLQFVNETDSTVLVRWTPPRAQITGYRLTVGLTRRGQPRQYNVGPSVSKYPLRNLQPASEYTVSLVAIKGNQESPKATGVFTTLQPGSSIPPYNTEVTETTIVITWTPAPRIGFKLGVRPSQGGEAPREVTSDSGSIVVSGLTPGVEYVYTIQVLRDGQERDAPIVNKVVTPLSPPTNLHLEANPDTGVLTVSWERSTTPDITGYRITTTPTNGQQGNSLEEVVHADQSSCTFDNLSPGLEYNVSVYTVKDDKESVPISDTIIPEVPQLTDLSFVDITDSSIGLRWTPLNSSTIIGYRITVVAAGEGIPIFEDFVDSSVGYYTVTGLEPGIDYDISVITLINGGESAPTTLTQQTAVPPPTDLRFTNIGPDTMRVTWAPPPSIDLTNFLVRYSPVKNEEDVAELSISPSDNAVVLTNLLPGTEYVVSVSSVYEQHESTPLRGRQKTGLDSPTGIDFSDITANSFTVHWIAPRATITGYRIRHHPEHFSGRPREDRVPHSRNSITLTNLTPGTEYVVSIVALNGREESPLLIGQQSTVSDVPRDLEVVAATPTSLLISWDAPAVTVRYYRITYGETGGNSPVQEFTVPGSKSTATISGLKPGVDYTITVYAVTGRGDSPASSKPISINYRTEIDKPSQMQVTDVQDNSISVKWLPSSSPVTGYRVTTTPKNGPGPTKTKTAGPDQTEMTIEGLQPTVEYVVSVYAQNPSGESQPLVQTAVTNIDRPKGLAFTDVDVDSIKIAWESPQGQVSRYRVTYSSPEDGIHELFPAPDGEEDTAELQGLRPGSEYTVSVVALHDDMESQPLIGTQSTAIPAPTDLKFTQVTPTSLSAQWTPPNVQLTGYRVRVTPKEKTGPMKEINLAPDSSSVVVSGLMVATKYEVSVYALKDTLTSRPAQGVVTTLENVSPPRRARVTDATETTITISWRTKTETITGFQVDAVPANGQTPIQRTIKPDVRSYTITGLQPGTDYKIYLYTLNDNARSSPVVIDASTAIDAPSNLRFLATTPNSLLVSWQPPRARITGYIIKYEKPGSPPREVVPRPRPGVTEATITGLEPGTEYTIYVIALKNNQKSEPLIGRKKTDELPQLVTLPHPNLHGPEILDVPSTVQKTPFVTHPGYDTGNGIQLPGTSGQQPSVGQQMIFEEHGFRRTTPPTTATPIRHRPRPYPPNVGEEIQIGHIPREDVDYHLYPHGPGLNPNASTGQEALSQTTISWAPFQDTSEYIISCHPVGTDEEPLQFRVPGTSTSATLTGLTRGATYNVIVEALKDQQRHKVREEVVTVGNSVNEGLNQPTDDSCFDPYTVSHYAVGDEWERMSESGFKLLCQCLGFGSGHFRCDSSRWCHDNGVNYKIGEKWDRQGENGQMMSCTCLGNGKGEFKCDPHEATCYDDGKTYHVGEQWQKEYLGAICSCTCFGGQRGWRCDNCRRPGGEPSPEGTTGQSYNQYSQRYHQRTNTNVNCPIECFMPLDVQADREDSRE

vascular remodeling = settings: localized pUR4 treatment; cited from earlier work
[4] = system: unilateral ureteral obstruction (UUO); settings: obstructive model of kidney injury; cited from earlier work
liver fibrosis = settings: localized pUR4 treatment; cited from earlier work
[5] = one week systemic daily administration, up to four weeks after I/R
[6] = 2 weeks after UIR, 25 mg/kg/d, 25 mg/kg/day
[7] = 14 days after UIR, 25 mg/kg/d, 25 mg/kg/day
[8] = injured kidney, 2 weeks after UIR, 25 mg/kg/d, 25 mg/kg/day
[9] = injured vs contralateral kidney, 14 days after UIR, 25 mg/kg i.p. daily from day 7, 25 mg/kg
[10] = kidney, 2 weeks after UIR, 25 mg/kg/d

In the case of “CKDQSPLAGESGETEYITEVYGNQQNPVDIDKKLPNETGFSGNMVETEDT (also: His tag) [pUR4]”, the “deposition of ECM proteins” value ([1]; after myocardial I/R) is given as “attenuated”, the neutrophil infiltration ([1]; after myocardial I/R) is given as “reduced” and the “proliferation of activated cardiac myofibroblasts” value ([1]; after myocardial I/R) is given as “reduced”. The cardiac function [1, 5] was “improves”, the “pathologic fibrosis and cardiac remodeling” value [1, 5] was “decreases” and the “kidney weight / kidney weight-to-body weight ratio” value [2, 6] was “partially restored; also recorded: significantly recovered”. For the same sequence, the “mature fibrillar collagen, second harmonic generation (SHG)” value [2, 6] was “alleviation of fibrotic collagen deposition; also recorded: decreased kidney fibrosis”, the “collagen deposition and maturation, picrosirius red staining (brightfield and polarized light)” value ([2]; 2 weeks after UIR, pUR4 vs III-11C, 25 mg/kg/d) was “decreased; also recorded: attenuated” and the “periglomerular fibrosis (fibronectin, α-SMA and vimentin surrounding glomeruli)” value ([2]; 14 days after UIR, 25 mg/kg/d) was “reduced periglomerular fibrosis”. For the same sequence, the “alpha-smooth muscle actin (α-SMA) expression / positive cells, immunostaining” value [2, 7] was “abrogated; also recorded: diminished”, the “collagen I deposition, immunofluorescence” value [2, 7] was “reduces this expansion; also recorded: concomitant decrease” and the “fibronectin deposition in kidney interstitium, immunofluorescence” value [2, 7] was “reduces this expansion; also recorded: decreased the amount of fibronectin”. The “vimentin expression / expansion of vimentin-positive cells outside the glomerulus, immunostaining” value [2, 7] was “abrogated; also recorded: diminished”, the “CD45+ immune cell accumulation, immunostaining” value [2, 8] was “abrogated” and the “tubule damage and cellular infiltration, H&E staining” value [2, 8] was “abrogates; also recorded: decrease in cellular infiltrate and reduced tubule damage”. For the same sequence, the “Havcr1 transcript expression, qPCR of kidney lysates” value [2, 9] was “nearly abolished; also recorded: significantly reduced”, the “lipocalin-2 (Lcn-2) transcript expression, qPCR of kidney lysates” value [2, 9] was “nearly abolished; also recorded: significantly reduced” and the “NGAL (lipocalin-2) protein expression, immunofluorescent staining” value [2, 10] was “decreased”. The “Tim-1/Kim-1 (Havcr1) protein expression, immunofluorescent staining” value [2, 10] was “decreased”, the “effect of injection in animals that underwent sham surgery” value ([2]; sham surgery, PBS vs III-11C vs pUR4) was “no differences were observed” and the fibronectin polymerization [3] was “inhibit”. The “fibronectin production or secretion” value [3] was “not its production or secretion”, the “excess ECM deposition” value (vascular remodeling) was “attenuates” and the fibrosis [4] was “attenuate fibrosis”. For the same sequence, the “excess ECM deposition” value (liver fibrosis) was “attenuates”.
